# Results: PubChem BioAssay AID1590 (NINDS Approved Drug Screening Program, 2009)
# Results filed as inconclusive are left out.
# Tested on: PC12 inducible Htt-N63-148Q toxicity rescue
# Experiment: protection against mutant Htt fragment cytotoxicity – PC12 cells, inducible expression, ROSShtt, dose response (AID 1590)
row,Structure (SMILES),EC50
1,O=C(O)C1CCCNC1 (stereo unspecified),10 µM
2,CN(C)[C@@H]1C(=O)C(C(N)=O)=C(O)[C@@]2(O)C(=O)C3=C(O)c4c(O)cccc4[C@@](C)(O)[C@H]3[C@H](O)[C@@H]12,1 µM
3,CN(C)[C@@H]1C(=O)C(C(N)=O)=C(O)[C@@]2(O)C(=O)C3=C(O)c4c(O)ccc(Cl)c4[C@@H](O)[C@H]3C[C@@H]12,1 µM
4,CC(C)NCC(O)c1ccc(O)c(O)c1 (stereo unspecified),15 µM
5,COc1c(C)c2c(c(O)c1C/C=C(\C)CCC(=O)O)C(=O)OC2,10 µM
6,C=C1c2c(Cl)ccc(O)c2C(O)=C2C(=O)[C@]3(O)C(O)=C(C(N)=O)C(=O)[C@@H](N(C)C)[C@@H]3[C@@H](O)[C@H]12,0.01 µM
7,CCN(Cc1ccncc1)C(=O)C(CO)c1ccccc1 (stereo unspecified),0.01 µM
8,CCCNCC(O)COc1ccccc1C(=O)CCc1ccccc1 (stereo unspecified),10 µM
9,N[C@H](C(=O)O)[C@@H]1CC(Cl)=NO1,10 µM
10,CN(C)[C@@H]1C(=O)C(C(N)=O)=C(O)[C@@]2(O)C(=O)C3=C(O)c4c(O)cccc4[C@@](C)(O)[C@H]3C[C@@H]12,0.1 µM
11,C=C1c2cccc(O)c2C(O)=C2C(=O)[C@]3(O)C(O)=C(C(N)=O)C(=O)[C@@H](N(C)C)[C@@H]3[C@@H](O)[C@H]12,0.01 µM
